From publication PMC6934184, “Selective DNA-PKcs inhibition extends the therapeutic index of localized radiotherapy and chemotherapy” (The Journal of Clinical Investigation, 2019)

Biological target: T1, ABL1 Q252H (Homo sapiens, UniProt P00519, Q252H)
T1 construct: purchased Thermo Fisher Scientific (Life Technologies) SelectScreen
Assay: SelectScreen LanthaScreen
Assay type: binding
Details: read-out: % displacement
How it was run: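 Percent values come from Thermo SelectScreen profiling of NU5455, combining activity and binding assays. CSF1R was run in Z'LYTE format at Km app ATP, and CAMK1 in Adapta format with ATP listed at 10.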

## CN(C(=O)CN1CCOCC1)c1ccc2sc3c(-c4cccc5c(=O)cc(N6CC7CCC(C6)O7)oc45)cccc3c2c1 [NU5455]
  inhibition at 1 µM: 1.1%
